Assay results as given in US11247990B1, “Bicyclic fused pyridine compounds as inhibitors of TAM kinases” (ARRAY BIOPHARMA INC., priority 2017, dated 2022).

Columns and labels:
Settings in all cases: averaged IC50
[1] = molecular target: His-tagged recombinant human AXL cytoplasmic domain (Homo sapiens (Human), UniProt P30530); test: AXL Enzyme Assay (LanthaScreen Eu Kinase Binding, TR-FRET)
How it was run: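 LanthaScreen Eu kinase binding format, incubated 60 min at 22 °C and read by TR-FRET dual-wavelength emission ratio as percent of control. IC50 taken where a 4-parameter logistic fit crosses 50 POC.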

[2] = molecular target: GST-tagged recombinant human TYRO3 kinase domain (Homo sapiens (Human), UniProt Q06418); test: TYRO3 Enzyme Assay (LanthaScreen Eu Kinase Binding, TR-FRET)
GST-tagged recombinant human TYRO3 kinase domain, sequence (Q06418 518-790): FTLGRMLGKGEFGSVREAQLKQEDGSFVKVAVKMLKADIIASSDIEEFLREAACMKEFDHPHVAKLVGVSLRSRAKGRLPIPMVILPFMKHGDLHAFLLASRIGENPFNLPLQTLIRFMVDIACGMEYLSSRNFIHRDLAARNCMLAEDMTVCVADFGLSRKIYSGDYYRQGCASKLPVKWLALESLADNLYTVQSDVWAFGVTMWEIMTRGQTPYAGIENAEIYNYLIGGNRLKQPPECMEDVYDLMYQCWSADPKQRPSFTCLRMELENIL
How it was run: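 LanthaScreen Eu binding (tracer displacement) format read by TR-FRET after 60 min at 22 °C. Emission ratio converted to percent of control; IC50 taken where a 4-parameter logistic fit crosses 50 POC.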

[3] = molecular target: His-tagged recombinant human MER cytoplasmic domain (Homo sapiens (Human), UniProt Q12866); test: MER Enzyme Assay (LanthaScreen Eu Kinase Binding, TR-FRET)
His-tagged recombinant human MER cytoplasmic domain, sequence (Q12866 527-999): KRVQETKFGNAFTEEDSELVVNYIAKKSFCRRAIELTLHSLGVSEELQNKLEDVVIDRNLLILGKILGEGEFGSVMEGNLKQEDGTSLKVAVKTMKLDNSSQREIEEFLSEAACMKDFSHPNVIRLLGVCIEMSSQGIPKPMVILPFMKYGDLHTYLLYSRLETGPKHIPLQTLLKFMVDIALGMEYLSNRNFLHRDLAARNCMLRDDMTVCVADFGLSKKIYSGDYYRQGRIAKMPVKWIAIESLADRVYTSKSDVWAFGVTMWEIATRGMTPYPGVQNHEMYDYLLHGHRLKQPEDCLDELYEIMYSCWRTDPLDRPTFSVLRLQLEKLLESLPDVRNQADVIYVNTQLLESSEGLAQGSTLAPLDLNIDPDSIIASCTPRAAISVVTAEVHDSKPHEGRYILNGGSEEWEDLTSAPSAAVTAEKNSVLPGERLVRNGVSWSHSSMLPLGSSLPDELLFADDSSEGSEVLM
How it was run: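 LanthaScreen Eu kinase binding (tracer displacement) assay with His-tagged human MER cytoplasmic domain, 60 min incubation at 22 °C. TR-FRET dual-wavelength emission ratio converted to percent of control; IC50 is where the 4-parameter logistic fit crosses 50 POC.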

His-tagged recombinant human AXL cytoplasmic domain, sequence (P30530 473-894): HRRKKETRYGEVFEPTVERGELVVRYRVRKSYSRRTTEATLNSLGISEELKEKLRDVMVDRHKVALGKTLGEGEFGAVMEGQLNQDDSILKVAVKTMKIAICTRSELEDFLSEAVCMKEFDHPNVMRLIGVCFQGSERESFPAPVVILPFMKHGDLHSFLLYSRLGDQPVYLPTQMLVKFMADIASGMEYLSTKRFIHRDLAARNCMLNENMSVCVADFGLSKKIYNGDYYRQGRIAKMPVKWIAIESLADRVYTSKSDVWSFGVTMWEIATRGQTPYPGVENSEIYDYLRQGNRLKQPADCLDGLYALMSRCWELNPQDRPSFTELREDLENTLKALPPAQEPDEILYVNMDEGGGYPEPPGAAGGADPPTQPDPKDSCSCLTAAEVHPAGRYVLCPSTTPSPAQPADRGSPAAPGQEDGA

Structure (SMILES): CCNc1cc2c(cn1)c(N1CC[C@H](NC)C1)nn2[C@H]1CC[C@@H](Oc2cccc(C(F)(F)F)c2F)CC1 [Example 491, N-ethyl-1-((1s,4R)-4-(2-fluoro-3-(trifluoromethyl)phenoxy)cyclohexyl)-3-((S)-3-(methylamino)pyrrolidin-1-yl)-1H-pyrazolo[4,3-c]pyridin-6-amine]
- IC50 [1]: < 10 nM
- IC50 [2]: 10 to 100 nM
- IC50 [3]: < 10 nM

Structure (SMILES): CCNc1cc2c(cn1)c(N1CC[C@@H](NC)C1)nn2[C@H]1CC[C@@H](Oc2cccc(C(F)(F)F)c2F)CC1 [Example 492, N-ethyl-1-((1s,4S)-4-(2-fluoro-3-(trifluoromethyl)phenoxy)cyclohexyl)-3-((R)-3-(methylamino)pyrrolidin-1-yl)-1H-pyrazolo[4,3-c]pyridin-6-amine]
- IC50 [1]: < 10 nM
- IC50 [2]: 10 to 100 nM
- IC50 [3]: < 10 nM

Structure (SMILES): CCNc1cc2c(cn1)c(N1CC[C@H](N)C1)nn2[C@H]1CC[C@@H](Oc2nccc(C(F)(F)F)c2F)CC1 [Example 493, 3-((S)-3-aminopyrrolidin-1-yl)-N-ethyl-1-((1s,4R)-4-((3-fluoro-4-(trifluoromethyl)pyridin-2-yl)oxy)cyclohexyl)-1H-pyrazolo[4,3-c]pyridin-6-amine]
- IC50 [1]: < 10 nM
- IC50 [2]: 10 to 100 nM
- IC50 [3]: < 10 nM

Structure (SMILES): CCNc1cc2c(cn1)c(N1CC[C@@H](N)C1)nn2[C@H]1CC[C@@H](Oc2nccc(C(F)(F)F)c2F)CC1 [Example 494, 3-((R)-3-aminopyrrolidin-1-yl)-N-ethyl-1-((1s,4S)-4-((3-fluoro-4-(trifluoromethyl)pyridin-2-yl)oxy)cyclohexyl)-1H-pyrazolo[4,3-c]pyridin-6-amine]
- IC50 [1]: < 10 nM
- IC50 [2]: 10 to 100 nM
- IC50 [3]: < 10 nM

Structure (SMILES): CNc1cc2c(cn1)c(N1CCNCC1)nn2[C@H]1CC[C@@H](Oc2nccc(C(F)(F)F)c2F)CC1 [Example 495, 1-((1s,4s)-4-((3-fluoro-4-(trifluoromethyl)pyridin-2-yl)oxy)cyclohexyl)-N-methyl-3-(piperazin-1-yl)-1H-pyrazolo[4,3-c]pyridin-6-amine]
- IC50 [1]: < 10 nM
- IC50 [2]: < 10 nM
- IC50 [3]: < 10 nM

Structure (SMILES): CCNc1cc2c(cn1)c(-c1cnn(CCN3CCN(C)CC3)c1)nn2[C@H]1CC[C@@H](Oc2nccc(C(F)(F)F)c2F)CC1 [Example 496]
- IC50 [1]: < 10 nM
- IC50 [2]: < 10 nM
- IC50 [3]: < 10 nM

Structure (SMILES): CCNc1cc2c(cn1)c(-c1cnn(C)c1)nn2[C@H]1CC[C@@H](Oc2cccc(C#N)c2F)CC1 [Example 497]
- IC50 [1]: < 10 nM
- IC50 [2]: < 10 nM
- IC50 [3]: < 10 nM

Structure (SMILES): CCNc1cc2c(cn1)c(-c1cnn(C)c1)nn2[C@H]1CC[C@@H](Oc2cccc(C(F)(F)F)c2F)CC1 [Example 498, N-ethyl-1-((1s,4s)-4-(2-fluoro-3-(trifluoromethyl)phenoxy)cyclohexyl)-3-(1-methyl-1H-pyrazol-4-yl)-1H-pyrazolo[4,3-c]pyridin-6-amine]
- IC50 [1]: < 10 nM
- IC50 [2]: 10 to 100 nM
- IC50 [3]: < 10 nM
